Reference: patent US9321756B2, “Azole compounds as PIM inhibitors” (priority 2011, dated 2016)
Where two headings read alike, the source gives them in different places.

Experiments:
[1] = biological target: full length recombinant Pim-1 (Homo sapiens (Human), UniProt P11309); experiment: Pim enzyme assay (HTRF, phosphorylation of biotinylated-BAD (S112) peptide), Pim-1; type: biochemical; conditions: read-out: Pim_1_IC50
[2] = biological target: full length recombinant Pim-3 (Homo sapiens (Human), UniProt Q86V86); experiment: Pim enzyme assay (HTRF, phosphorylation of biotinylated-BAD (S112) peptide), Pim-3; type: biochemical; conditions: read-out: Pim3 IC50
Excerpt: Pim-3 was purchased from Millipore (UK).
The phosphorylation of biotinylated-BAD (S112) peptide by full length recombinant Pim-1, Pim-2, or Pim-3 protein was detected with streptavidin:Allophycocyanin (APC) conjugate and a europium (Eu) labeled antibody directed against phosphorylated-BAD (S112). […] The fluorescence is directly proportional to the amount of phosphorylated BAD peptide present in the reaction.
A reference compound was included on each assay plate in order to validate that plate; on one plate of every assay run, two additional reference compounds were included.
The final buffer conditions were as follows: 60 mM Hepes, pH 7.0, 0.05% BSA, 2 mM DTT. Incubations were carried out at RT (22° C.) for 2 h for Pim-1, 1 h and 30 min for Pim-3, and 45 min for Pim-2. The reaction was then stopped by the addition of 3 mM EDTA, and fluorescence was measured by an HTRF® Rubystar microplate reader. For each plate, percent of control (POC) values were calculated for each well. Values for the IC50 IP were estimated using a standard 4-parameter logistic model.

[3] = biological target: full length recombinant Pim-2 (Homo sapiens (Human), UniProt Q9P1W9); experiment: Pim enzyme assay (HTRF, phosphorylation of biotinylated-BAD (S112) peptide), Pim-2; type: biochemical; conditions: read-out: Pim2_IC50
[4] = test system: Pim-1 stably transfected U2OS human osteogenic sarcoma line; experiment: Pim cell assay U2OS (phospho-BAD normalized against total BAD), Pim-1 transfected; type: cell-based; conditions: Homo sapiens, U2OS
Method: The cell lines used in the assay were generated by the stable transfection of either Pim-1 or Pim-2 into the U2OS human osteogenic sarcoma line. The assay for determination of the Pim activity in the engineered U2OS cell lines measures levels of phospho-BAD normalized against total BAD protein levels. It was conducted as follows:
The adherent cells were dissociated from the flasks using non-enzymatic cell dissociation solution (Sigma #C5914). […] The cells were then incubated overnight at 37° C., 5% CO2.
In addition to the 10-point dosing curve of the test compound, DMSO alone was run as the high control.
This dilution in DMSO was then diluted again into cell growth medium. Aliquots (12 μL) of the compound diluted in growth medium were then transferred to the appropriate wells of the 96-well plates containing cells to a final DMSO concentration of 0.3%. The cell plates were then incubated with compound for 29 min at 37° C., 5% CO2.
The cell plates containing lysis buffer were then immediately stored at −70° C.
These prepared lysates were then assayed for phospho and total BAD according to the manufacturer's protocols (Meso Scale Diagnostics, Cat#K15103C-3 & #K15103D-3). The plates were read on the MSD Sector Imager 6000, and results were calculated according to the assay protocols ((% Phosphoprotein=((2×Phospho signal)/(Phospho signal+Total signal))×100)).

[5] = read-out: U2OS Pim1_Cell_IC50, U2OS cells, Pim-1 transfected

Chain of full length recombinant Pim-2 (Q9P1W9 whole entry): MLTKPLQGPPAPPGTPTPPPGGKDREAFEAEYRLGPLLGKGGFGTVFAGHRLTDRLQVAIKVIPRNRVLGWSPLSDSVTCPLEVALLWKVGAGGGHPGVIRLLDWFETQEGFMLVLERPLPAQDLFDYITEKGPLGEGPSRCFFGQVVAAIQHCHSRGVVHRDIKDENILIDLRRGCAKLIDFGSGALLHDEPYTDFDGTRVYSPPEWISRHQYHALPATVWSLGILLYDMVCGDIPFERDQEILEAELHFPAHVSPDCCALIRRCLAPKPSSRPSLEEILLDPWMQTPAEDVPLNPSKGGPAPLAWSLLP
Chain of full length recombinant Pim-1 (P11309 whole entry): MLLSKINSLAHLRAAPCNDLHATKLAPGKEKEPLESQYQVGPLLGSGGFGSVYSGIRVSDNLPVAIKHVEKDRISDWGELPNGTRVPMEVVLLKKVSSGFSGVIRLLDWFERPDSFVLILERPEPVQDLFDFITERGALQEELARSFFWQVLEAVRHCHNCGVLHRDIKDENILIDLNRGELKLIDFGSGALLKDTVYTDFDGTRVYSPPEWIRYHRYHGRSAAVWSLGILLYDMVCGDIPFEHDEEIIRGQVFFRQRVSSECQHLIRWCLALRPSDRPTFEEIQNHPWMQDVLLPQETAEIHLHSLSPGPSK

Work on Nc1nnc(-c2ccc3[nH]cc(-c4cccc(N5CCCCC5=O)n4)c3c2)s1 [Example 181, 1-(6-(5-(5-amino-1,3,4-thiadiazol-2-yl)-1H-indol-3-yl)-2-pyridinyl)-2-piperidinone] yielded an IC50 ([1]; Pim-1 enzyme assay) of 0.0981 µM, an IC50 ([2]; Pim-3 enzyme assay) of 0.047 µM and an IC50 ([3]; Pim-2 enzyme assay) of 0.223 µM. The IC50 ([4]; read-out: U2OS Pim1_Cell_IC50) was 2.26 µM.
Compound c1cc2[nH]cc(-c3cncc(C4CC4)n3)c2cc1-c1nnc(N2CCCC2)o1 [Example 37, 2-(3-(6-Cyclopropylpyrazin-2-yl)-1H-indol-5-yl)-5-(pyrrolidin-1-yl)-1,3,4-oxadiazole 2,2,2-trifluoroacetate] has an IC50 ([1]; Pim-1 enzyme assay) of 0.00914 µM, an IC50 [2] of 0.00678 µM and an IC50 [3] of 0.0801 µM. The IC50 [4, 5] was 0.237 µM.
Compound CN1CCN(c2cccc(-c3c[nH]c4ccc(-c5nnc(N)s5)cc34)n2)CC1=O [Example 30, 4-(6-(5-(5-amino-1,3,4-thiadiazol-2-yl)-1H-indol-3-yl)pyridin-2-yl)-1-methylpiperazin-2-one] has an IC50 [1] of 0.0133 µM, an IC50 ([2]; Pim-3 enzyme assay) of 0.0025 µM and an IC50 ([3]; Pim-2 enzyme assay) of 0.0527 µM. The IC50 [4, 5] was 1.17 µM.
Nc1nnc(-c2ccc3[nH]cc(-c4cncc(NC5CC5)n4)c3c2)s1 [Example 15, 5-(3-(6-(cyclopropylamino)pyrazin-2-yl)-1H-indol-5-yl)-1,3,4-thiadiazol-2-amine] gave an IC50 [1] of 0.00457 µM, an IC50 ([3]; Pim-2 enzyme assay) of 0.0201 µM and an IC50 [4, 5] of 0.108 µM.
In the case of Nc1nnc(-c2ccc3[nH]cc(-c4cncc(-c5ccccc5Cl)n4)c3c2)o1 [Example 117, 5-(3-(6-(2-chlorophenyl)-2-pyrazinyl)-1H-indol-5-yl)-1,3,4-oxadiazol-2-amine], the IC50 ([1]; Pim-1 enzyme assay) is reported as 0.0165 µM, the IC50 ([2]; Pim-3 enzyme assay) is reported as 0.0218 µM and the IC50 ([3]; Pim-2 enzyme assay) is reported as 0.0573 µM. For the same compound, the IC50 [4, 5] was 0.227 µM.
C[C@@H]1CCCN(c2cccc(-c3c[nH]c4ccc(-c5nnc(N)s5)cc34)n2)C1 (stereo in doubt) [Example 174, 5-(3-(6-(3-methyl-1-piperidinyl)-2-pyridinyl)-1H-indol-5-yl)-1,3,4-thiadiazol-2-amine] gave an IC50 ([1]; Pim-1 enzyme assay) of 0.041 µM, an IC50 ([2]; Pim-3 enzyme assay) of 0.0236 µM and an IC50 ([3]; Pim-2 enzyme assay) of 0.159 µM. It also gave an IC50 ([4]; read-out: U2OS Pim1_Cell_IC50) of 0.998 µM.
Work on CC1CCN(c2cccc(-c3c[nH]c4ccc(-c5nnc(N)s5)cc34)n2)CC1 [Example 175, 5-(3-(6-(4-methyl-1-piperidinyl)-2-pyridinyl)-1H-indol-5-yl)-1,3,4-thiadiazol-2-amine] yielded an IC50 ([1]; Pim-1 enzyme assay) of 0.0414 µM, an IC50 ([2]; Pim-3 enzyme assay) of 0.0177 µM and an IC50 ([3]; Pim-2 enzyme assay) of 0.117 µM. It also gave an IC50 ([4]; read-out: U2OS Pim1_Cell_IC50) of 0.682 µM.
With CNc1nnc(-c2ccc3[nH]cc(-c4cccc(-n5ccnc5C)n4)c3c2)s1 [Example 234, N-methyl-5-(3-(6-(2-methyl-1H-imidazol-1-yl)-2-pyridinyl)-1H-indol-5-yl)-1,3,4-thiadiazol-2-amine] the IC50 ([1]; Pim-1 enzyme assay) was 0.108 µM, the IC50 ([2]; Pim-3 enzyme assay) was 0.0185 µM and the IC50 ([3]; Pim-2 enzyme assay) was 0.123 µM.
CNc1nnc(-c2ccc3[nH]cc(-c4ccn[nH]4)c3c2)s1 [Example 222, N-methyl-5-(3-(1H-pyrazol-5-yl)-1H-indol-5-yl)-1,3,4-thiadiazol-2-amine] gave an IC50 ([1]; Pim-1 enzyme assay) of 1.01 µM, an IC50 ([2]; Pim-3 enzyme assay) of 0.268 µM and an IC50 ([3]; Pim-2 enzyme assay) of 1.44 µM.
CNc1nnc(-c2ccc3[nH]cc(-c4cccc(N5CCCCC5=O)n4)c3c2)s1 [Example 236, 1-(6-(5-(5-(methylamino)-1,3,4-thiadiazol-2-yl)-1H-indol-3-yl)-2-pyridinyl)-2-piperidinone] was tested, and the IC50 ([1]; Pim-1 enzyme assay) was 0.325 µM, the IC50 ([2]; Pim-3 enzyme assay) was 0.114 µM and the IC50 ([3]; Pim-2 enzyme assay) was 0.538 µM.
Nc1nnc(-c2ccc3[nH]cc(-c4cncc(-c5ccc(F)cc5)n4)c3c2)o1 [Example 7, 5-(3-(6-(4-fluorophenyl)pyrazin-2-yl)-1H-indol-5-yl)-1,3,4-oxadiazol-2-amine] was tested, and the IC50 ([1]; Pim-1 enzyme assay) was 0.0288 µM, the IC50 ([2]; Pim-3 enzyme assay) was 0.0197 µM and the IC50 ([3]; Pim-2 enzyme assay) was 0.0425 µM.
Compound CNc1nnc(-c2ccc3[nH]cc(-c4cccc(F)n4)c3c2)s1 [Example 239, 5-(3-(6-fluoro-2-pyridinyl)-1H-indol-5-yl)-N-methyl-1,3,4-thiadiazol-2-amine] has an IC50 ([1]; Pim-1 enzyme assay) of 1.03 µM, an IC50 ([2]; Pim-3 enzyme assay) of 0.17 µM and an IC50 ([3]; Pim-2 enzyme assay) of 0.739 µM.
In the case of CNc1nnc(-c2ccc3[nH]cc(-c4ccc(F)cc4F)c3c2)s1 [Example 23, 5-(3-(2,4-difluorophenyl)-1H-indol-5-yl)-N-methyl-1,3,4-thiadiazol-2-amine], the IC50 ([1]; Pim-1 enzyme assay) is reported as 0.423 µM, the IC50 ([2]; Pim-3 enzyme assay) is reported as 0.136 µM and the IC50 ([3]; Pim-2 enzyme assay) is reported as 1.55 µM.
